A short description of data set [1]: Order parameter in liquid crystal medium E43. The format is physicochemical. Conditions: E43, 20° C. The procedure:
(§1) In order to provide maximum contrast between the two states it is important that the guest molecules adopt as closely as possible the time averaged orientation of the host, however this is achieved only to a limited degree because of random thermal fluctuations. The degree to which the orientation varies from the ideal is measured by a quantity known as the order parameter S which is given by the following equation: […]
where cos^2 θ is a time averaged term and θ is the instantaneous angular orientation of the molecules with respect to the time averaged orientation of the host molecules.

Data set [2] can be described thus: Absorption maximum in liquid crystal medium E43. Conditions: E43, 20° C.; for λmax: Table 4; for max: HPLC fractions, Table 3. The format is physicochemical.
Source text: (§15) Detection was by means of a u.v. source (254 nm) and samples, corresponding to all the peaks in the chromatogram, were collected.
Data set [3] can be described thus: Molar extinction coefficient in chloroform. Format: physicochemical. The procedure:
To a mixture of 9.4 g of 2,7-di-n-pentyl-4,5-dinitrochrysazin from Example 25(b) in 200 ml of pyridine at 20° C. there was added a solution of 2.2 ml of thiophenol in 50 ml of pyridine. The colour of the mixture gradually changed from orange-brown to red and after 2 hours at 20° C. was drowned into water, filtered, washed successively with water and methanol and dried to yield 9.5 g of product (88% theory). The structure was confirmed by mass spectrometry and elemental analysis, C=67.5 (67.5) H=5.8 (5.8) S=6.7 (6.0) and N=3.0 (2.7).
To a mixture of 1.7 ml of 4-t-butylphenylmercaptan and 0.4 g of KOH in 50 ml of isopropanol at 60° C. was added 3.7 g of the product of Example 25(c) and the temperature raised to 80° C. for 1.5 hour. It was then cooled to room temperature, filtered, washed successively with isopropanol and methanol and dried to give 3.5 g of product. After recrystallisation from petroleum ether, the structure was confirmed by mass spectrometry and elemental analysis, C=73.0 (73.6) H=6.5 (6.8) S=9.1 (9.8).
The process of Example 25(c) was repeated using 9.6 g of 2,7-n-heptyl-4,5-dinitrochrysazin in place of the 9.4 g of 2,7-di-n-pentyl-4,5-dinitrochrysazin. The structure was confirmed by mass spectrometry.
The process of Example 25(d) was repeated using 3.8 g of 2,7-di-n-heptyl-4-phenylthio-5-nitrochrysazin in place of the 3.7 g of 2,7-di-n-pentyl-4-phenylthio-5-nitrochrysazin. After recrystallisation from petroleum ether, the structure was confirmed by mass spectrometry.

Data set [4] in a line: Solubility in liquid crystal material E43. Conditions: E43, 20° C., HPLC fractions, Table 3.
Procedure: The solubility of the product was measured in liquid crystal material E43 marketed by BDH Chemicals Limited of Broom Road, Poole, Dorset, England.
as §15
A short description of data set [5]: Solubility in other liquid crystal media (hosts) / liquid crystal materials. Format: physicochemical. Conditions: general statement. The procedure:
(§2) The properties of some of the dyes described in the Examples were also measured in other liquid crystal media (hosts) at 20° C., unless otherwise stated, and the results are set out in Table 5.
(§3) The liquid crystal materials referred to in Table 5 as Hosts 1 to 12 have the following compositions:
(§4) Host 1 is the liquid crystal material E7, available from BDH Chemicals Ltd, which includes the compounds:
(§5) Host 2 is the liquid crystal material ZLI 1132, available from E Merck & Co, which includes the following compounds:
(§6) Host 3 is the liquid crystal material ZLI 1695, available from E Merck & Co, Darmstadt, West Germany. This has a clearing point (nematic to isotropic transition temperature) of 72° C.
(§7) Host 4 is a mixture of alkyl-cyanophenyl-dioxanes containing n-propyl, n-pentyl and n-heptyl chains.
(§8) Host 5 is the liquid crystal material ZLI 1565, available from E Merck & Co. This has a clearing point of 85° C.
(§9) Host 6 is the liquid crystal material ZLI 1624, available from E Merck & Co. This has a clearing point of 87° C.
(§10) Host 8 is the liquid crystal material RO-TN 430 available from Hoffmann La Roche Co. This has a clearing point of 69° C.
(§11) Host 9 is a mixed bicyclo-octane liquid crystal material containing the following compounds:
(§12) Host 10 is a mixture of liquid crystal materials based mainly on cyanobiphenyls and available from BDH Chemicals Ltd under the name E61.
(§13) Host 11 is a mixture of liquid crystal materials based mainly on cyanobiphenyls and available from BDH Chemicals Ltd under the name E49.
(§14) Host 12 is a mixture of fluorobicyclo(2,2,2)octane esters having negative anisotropy and containing a mixture of two compounds of the following formula: […]

The nature of data set [6]: Order parameter in other liquid crystal media (hosts) / liquid crystal materials. Format: physicochemical. Conditions: general statement. The procedure: as §1
where cos^2 θ is a time averaged term and θ is the instantaneous angular orientation of the molecules with respect to the time averaged orientation of the host molecules. The determination of the value of the order parameter S is well understood in the art, see for example the paper, "A new absorptive mode reflective liquid crystal display device", by D. L. White and G. N. Taylor in the Journal of Applied Physics, 1974, 45, pages […] to 4723.
as §2, §3, §4, §5, §6, §7, §8, §9, §10, §11, §12, §13, §14

For the compound `Cc1ccc(Sc2cccc3c2C(=O)c2cccc(Sc4ccccc4)c2C3=O)cc1` [Example 13, 1-phenylthio-5(4-methylphenylthio)AQ], in data set [1] (Table 4), the “Order Parameter” value is 0.80. Also, the λmax in data set [2] turned out to be 464 nm.

In the case of `CCCCSc1cccc2c1C(=O)c1cccc(Sc3ccccc3)c1C2=O` [Example 14, 1-phenylthio-5(n-butylthio)AQ], the “Order Parameter” value in data set [1] (Table 4) is 0.75. The compound also yielded a λmax in data set [2] of 470 nm.

Regarding `CC(C)(C)c1ccc(Sc2ccc(Sc3ccccc3)c3c2C(=O)c2c(Sc4ccccc4)ccc(Sc4ccccc4)c2C3=O)cc1` [Fraction 5, tris-(phenylthio)-t-butylphenylthio-AQ], the “Order Parameter” value in data set [1] (HPLC fractions, Table 3) was 0.78. Also, the max in data set [2] came to 550 nm.

For the compound `O=C1c2c(Sc3ccccc3)ccc(Sc3ccccc3)c2C(=O)c2c(Sc3ccccc3)ccc(Sc3ccccc3)c21` (single isomer, unassigned) [1,4,5,8-tetrakis(phenylthio)anthraquinone, reference compound], the “Order Parameter” value in data set [1] (HPLC fractions, Table 3) is reported as 0.78. In addition, the max in data set [2] is 550 nm.

Turning to `CC(CCc1cc(N)c2c(c1O)C(=O)c1c(O)c(CCC(C)CC(C)(C)C)cc(Sc3ccccc3)c1C2=O)CC(C)(C)C` (stereo not shown) [23(d), 1,8-dihydroxy-2,7-di-nonyl-4-phenylthio-5-aminoanthraquinone], the “Order Parameter” value in data set [1] (Table 4) was 0.74. The λmax in data set [2] is 565/610.

Regarding `CCCCCCCc1cc(Sc2ccccc2)c2c(c1O)C(=O)c1c(O)c(CCCCCCC)cc([N+](=O)[O-])c1C2=O` [Example 26(c), 2,7-Di-n-heptyl-4-phenylthio-5-nitrochrysazin], in data set [3] (540 nm), the molar extinction coefficient is 12,095.

Regarding `CC(C)(C)c1ccc(Sc2ccc(Sc3ccccc3)c3c2C(=O)c2c(Sc4ccc(C(C)(C)C)cc4)ccc(Sc4ccc(C(C)(C)C)cc4)c2C3=O)cc1` [Fraction 2, tris-(t-butylphenylthio)-phenylthio-AQ], the “Order Parameter” value in data set [1] (HPLC fractions, Table 3) is given as 0.78. In data set [2], the max is reported as 550 nm.

For the compound `CCCCCc1cc(Sc2ccccc2)c2c(c1O)C(=O)c1c(O)c(CCCCC)cc(Sc3ccc(C(C)(C)C)cc3)c1C2=O` [Example 25(d), 2,7-di-n-pentyl-4-phenylthio-5-(4-t-butylphenylthio)chrysazin], in data set [1] (Table 4), the “Order Parameter” value turned out to be 0.77. In data set [2], this compound returned a λmax of 592 nm. For the same compound, the molar extinction coefficient in data set [3] (592 nm) was 19,183.

As for `CC(CCc1cc(N)c2c(c1O)C(=O)c1c(Sc3ccccc3)cc(CCC(C)CC(C)(C)C)c(O)c1C2=O)CC(C)(C)C` (stereo not shown) [Example 23(c), 1,5-dihydroxy-2,6-dinonyl-4-phenylthio-8-aminoanthraquinone], the “Order Parameter” value in data set [1] (Table 4) stood at 0.73. For the same compound, in data set [2], the λmax was 565/610.

For `CC(CCc1cc(Sc2ccccc2)c2c(c1O)C(=O)c1c(Sc3ccccc3)cc(CCC(C)CC(C)(C)C)c(O)c1C2=O)CC(C)(C)C` (stereo not shown) [Example 23(e), 1,5-dihydroxy-2,6-dinonyl-4,8-diphenylthio-AQ], in data set [1] (Table 4), the “Order Parameter” value is 0.77. Besides, in data set [2], the λmax amounted to 590 nm.

With `CC(C)(C)c1ccc(Sc2cccc3c2C(=O)c2c(Sc4ccccc4)ccc(Sc4ccc(C(C)(C)C)cc4)c2C3=O)cc1` [Example 22, 1,5-di(4-t-butylphenylthio)-4-phenylthio-AQ], the “Order Parameter” value in data set [1] (Table 4) is 0.81. The compound further came in with a λmax in data set [2] of 520 nm.

For the compound `CC(CCc1cc(Sc2ccccc2)c2c(c1O)C(=O)c1c([N+](=O)[O-])cc(CCC(C)CC(C)(C)C)c(O)c1C2=O)CC(C)(C)C` (stereo not shown) [Example 23(a), 1,5-dihydroxy-2,6-dinonyl-4-phenylthio-8-nitroanthraquinone], in data set [1] (Table 4), the “Order Parameter” value was 0.72. Also, the λmax in data set [2] is 565/610.

Consider “bis-(phenylthio)-bis-(t-butylphenylthio)AQ [Fraction 3a]”, for which, in data set [1] (HPLC fractions, Table 3), the “Order Parameter” value is listed as 0.78. In data set [2], this compound displayed a max of 550 nm.

In turn, “bis-(phenylthio)-bis-(t-butylphenylthio)AQ [Fraction 3]” displayed a Solubility in data set [4] of less than 0.5%.

On to `O=C1c2cccc(SC3CCCCC3)c2C(=O)c2cccc(Sc3ccccc3)c21` [Example 16, 1-phenylthio-5-cyclohexylthio-AQ], for which the “Order Parameter” value in data set [1] (Table 4) came out at 0.81. The λmax in data set [2] is listed as 465 nm.

On to `CCCCCc1cc(Sc2ccccc2)c2c(c1O)C(=O)c1c(O)c(CCCCC)cc([N+](=O)[O-])c1C2=O` [Example 25(c), 2,7-Di-n-pentyl-4-phenylthio-5-nitrochrysazin], for which the molar extinction coefficient in data set [3] (540 nm) is listed as 12,541.

For `CCCCCCCc1cc(Sc2ccccc2)c2c(c1O)C(=O)c1c(O)c(CCCCCCC)cc(Sc3ccc(C(C)(C)C)cc3)c1C2=O` [26(d), 2,7-Di-n-heptyl-4-phenylthio-5-(4-t-butylphenylthio)chrysazin], the “Order Parameter” value in data set [1] (Table 4) came out at 0.78. Moreover, the λmax in data set [2] was found to be 592 nm. For the same compound, the molar extinction coefficient in data set [3] (592 nm) is recorded as 19,650. The “solubility in liquid crystal materials (in words)” value in data set [5] is recorded as “particularly good”. In addition, the “order parameter in liquid crystal materials (in words)” value in data set [6] is listed as “high”.

For the compound `CC(C)(C)c1ccc(Sc2ccc(Sc3ccc(C(C)(C)C)cc3)c3c2C(=O)c2c(Sc4ccc(C(C)(C)C)cc4)ccc(Sc4ccc(C(C)(C)C)cc4)c2C3=O)cc1` (single isomer, unassigned) [1,4,5,8-tetrakis(4-t-butylphenylthio)anthraquinone, reference compound], in data set [1] (HPLC fractions, Table 3), the “Order Parameter” value came out at 0.78. The max in data set [2] turned out to be 550 nm.

For the compound `CC(C)(C)c1ccc(Sc2ccc(N)c3c2C(=O)c2c(N)ccc(Sc4ccccc4)c2C3=O)cc1` [Example 18, 1-phenylthio-5(4-t-butylphenylthio)-4,8-diamino-AQ], the “Order Parameter” value in data set [1] (Table 4) is on record as 0.73. In addition, the λmax in data set [2] is on record as 605 nm.

As for “bis-(phenylthio)-bis-(t-butylphenylthio)AQ [Fraction 4]”, in data set [1] (HPLC fractions, Table 3), the “Order Parameter” value is given as 0.77. Besides, the max in data set [2] came out at 550 nm.

As to `CC(CCc1cc(Sc2ccccc2)c2c(c1O)C(=O)c1c(O)c(CCC(C)CC(C)(C)C)cc(Sc3ccccc3)c1C2=O)CC(C)(C)C` (stereo not shown) [23(f), 1,8-dihydroxy-2,7-dinonyl-4,5-diphenylthio-AQ], the “Order Parameter” value in data set [1] (Table 4) amounted to 0.72. Further, the λmax in data set [2] is 590 nm.

For the compound `Cc1cccc(Sc2cccc3c2C(=O)c2cccc(Sc4ccccc4)c2C3=O)c1` [Example 12, 1-phenylthio-5(3-methylphenylthio)AQ], the “Order Parameter” value in data set [1] (Table 4) worked out at 0.78. This compound gave a λmax in data set [2] of 464 nm.

Take `CCCCCCCCCCCCc1cc(Sc2ccccc2)c2c(c1O)C(=O)c1c(O)c(CCCCCCCCCCCC)cc(Sc3ccc(C(C)(C)C)cc3)c1C2=O` [24(d), 1,8-dihydroxy-2,7-didodecyl-4-phenylthio-5-(4-t-butylphenylthio)-AQ]: the “Order Parameter” value in data set [1] (Table 4) is on record as 0.83. In data set [2], this compound gave a λmax of 590 nm.

Turning to `O=C1c2cccc(Sc3ccc(-c4ccccc4)cc3)c2C(=O)c2cccc(Sc3ccccc3)c21` [Example 15, 1-phenylthio-5(4-phenylphenylthio)AQ], the “Order Parameter” value in data set [1] (Table 4) is 0.78. For the same compound, the λmax in data set [2] was found to be 460 nm.

The values are drawn from patent US4446047A, “Pleochroic anthraquinone dyes” (Imperial Chemical Industries PLC, priority 1981, dated 1984).
